We go through 14 molecules from PubChem BioAssay AID1963427 (Molecular Pharmacology Branch, DTP, NCI, 2024).

In this assay the test system is 317291-083-R-J1-PDC complex spheroid growth. Put plainly: Anticancer human tumor 317291-083-R-J1-PDC patient-derived soft tissue sarcoma cell line growth inhibition [Asc]. The note with it: for viability, T/C: stronger effect = lower value. The protocol: Multicellular complex tumor spheroid response to apoptosis pathway targeting inhibitors Alrizomadlin, Pelcitoclax, and Dasminapant in combination with a variety of drugs and investigational agents in selected tumor cell lines
The MDM2 inhibitor alrizomadlin, the Bcl-2/Bcl-xL inhibitor pelcitoclax, and the IAPs inhibitor dasminapant were evaluated both individually and in combination with standard of care and investigational anticancer small molecules within a complex spheroid model of solid tumors. . Complex spheroids include a stromal component modeled by human endothelial cells (HUVEC) and fibroblasts modeled by human mesenchymal stem cells (MSCs). The concentration ranges selected for each drug and investigational agent were based upon clinically achievable concentrations if the clinical Cmax of the agent was known.
Compounds. The drugs and investigational agents: alrizomadlin (APG-115; NSC831270), pelcitoclax (APG-1252; NSC835773), dasminapant (APG-1387;NSC834197), TAK-243 (NSC785004), copanlisib (NSC809693), olaparib (NSC753686), talazoparib (NSC767125), cobimetinib (NSC 768068), eltanexor (KPT-8602, NSC 794443), abemaciclib (NSC 768073), sotorasib (NSC818433), adagrasib (NSC 831453), MRTX-1133 (NSC 836407), Iadademestat (ORY1001, NSC 806812), and RMC-4630 (NSC839698), were obtained from the NCI Developmental Therapeutics Program Chemical Repository. The FDA-approved anticancer drug set is available from the Developmental Therapeutics Program at https://dtp.cancer.gov/organization/dscb/obtaining/available plates.htm. […] The stock solutions were prepared in dimethyl sulfoxide (DMSO, Sigma-Aldrich, St. Louis, MO, cat. D2650) at 800-fold the tested concentration and stored at -70 degrees C prior to their use. All drugs and investigational agents were tested over a range starting from a high concentration at or near the clinical Cmax and decreasing in half-log increments. If the clinical Cmax for an agent had not been determined, the highest concentration tested was 10 microM.
The patient-derived cancer (PDC) cell lines include five colon adenocarcinomas: 186277-243-T-J2-PDC, 616215-338-R-J1-PDC, 439559-082-T-J2-PDC, 463943-066-T-J2-PDC, and 519858-162-T-J1-PDC; three pancreatic carcinomas: 323965-272-R-J2-PDC, 521955-158-R6-J3-PDC, and 521955-158-R2-J5-PDC; two uterine sarcomas: 327498-152-R-J2-PDC and 993429-296-R-J1-PDC; two rhabdomyosarcomas: 755483-174-R-J1-PDC and 772245-204-R-J1-PDC; two soft tissue sarcomas: 126254-015-R-J1-PDC and 494315-158-R-J1-PDC; two malignant fibrous histiocytomas: 317291-083-R-J1-PDC and 596521-263-R-J1-PDC; two breast carcinomas: 171881-019-R-J1-PDC and 885512-296-R-J2-PDC; and one ovarian carcinoma: 6556581-035-R-J-PDC were obtained from the NCI PDMR, (https://pdmr.cancer.gov). The established cell lines HSSY-2 synovial sarcoma (RRID:CVCL 8719), SYO-1 synovial sarcoma (RRID:CVCL_7146), MPNST malignant peripheral neural sheath tumor were obtained from the Sloan Kettering Institute. The following established cell lines were purchased from the American Type Culture Collection (ATCC, Manassas, VA), Sor the received from the NCI repository:, PANC-1 pancreatic carcinoma (CRL-1469, RRID:CVCL_0480), OVCAR-5 ovarian carcinoma (RRID:CVCL_1628), OVCAR-8 ovarian carcinoma (RRID:CVCL_1629), , MCF-7 breast carcinoma (CRL-12584, RRID:CVCL_0031), MDA-MB-231 breast carcinoma (CRL-12532, RRID:CVCL_0062), NCI-H1876 small cell lung carcinoma (CRL-5902, RRID:CVCL_1503), NCI-H510A small cell lung carcinoma (HTB-184, RRID:CVCL_1565), NCI-H1417 (CRL-5869, RRID:CVCL_1469), and NCI-H196 small cell lung carcinoma (CRL-5823, RRID:CVCL_1509). Dr. Peter Houghton (Greehey Children's Cancer Research Institute, University of Texas Health Science Center, San Antonio, TX) provided Rh-18 rhabdomyosarcoma (RRID:CVCL_1659). Pooled donor human umbilical vein endothelial cells (HUVEC, Lonza, cat. CC-2519) and human mesenchymal stem cells (hMSC, Lonza, cat. PT-2501) were purchased from Lonza (Walkersville, MD).
Cell Culture. […]

Setting [1] is: compound alone, run of 11/07/2022.

Values joined by “and” are separate entries in the source; they are usually repeats but may differ in a detail not shown here. Equal values may be shown once.
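Also: compound exposure lasted seven days after spheroids formed for three days.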
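For viability, T/C in this document: 100% = DMSO vehicle control wells.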

For orientation: viability, T/C means the result in the treated group divided by that in the control group, in per cent. What is called IC50 is the concentration at which inhibition is half-maximal. As to `C#Cc1c(F)ccc2cc(O)cc(-c3ncc4c(N5CC6CCC(C5)N6)nc(OCC56CCCN5CC(F)C6)nc4c3F)c12` (configuration not stated), the viability, T/C was 86.9% and 91% and 105% (compound 0.0316 µM); 84.9% and 99.4% and 85.2% (compound 0.1 µM); 87.6% and 108% and 105% (compound 0.316 µM); 97.5% and 103% and 102% (compound 1 µM); 95.8% and 90.8% and 94.6% (compound 3.16 µM); 56.1% and 72.7% and 85.2% (compound 10 µM). Further, for the setting “curve of compound”, the IC50 is greater than 10000 nM.
As to `C=C(F)C(=O)N1CCN(c2nc(OCC3CCCN3C)nc3c2CCN(c2cccc4cccc(Cl)c24)C3)CC1CC#N` (configuration not stated), the viability, T/C (compound 0.0316 µM) is 83.4% and 107% (2×); the viability, T/C (compound 0.1 µM) is 76.7% and 88.1% and 99.1%; the viability, T/C (compound 0.316 µM) is 93.2% and 95.1% and 113%; the viability, T/C (compound 1 µM) is 89% and 89.6% and 87.7%; the viability, T/C (compound 3.16 µM) is 47% and 39% and 55.3%; the viability, T/C (compound 10 µM) is 0.16% and 0.29% and 0.23%. Moreover, the IC50 (curve of compound) was 2890 nM and 2460 nM and 3470 nM.
In the case of `C=CC(=O)N1CCN(c2nc(=O)n(-c3c(C)ccnc3C(C)C)c3nc(-c4c(O)cccc4F)c(F)cc23)C(C)C1` (configuration not stated), the viability, T/C runs as follows: (compound 0.0316 µM) 94.7% and 115% and 91.3%; (compound 0.1 µM) 116% and 91.4% and 84%; (compound 0.316 µM) 97.3% and 95.1% and 99.8%; (compound 1 µM) 117% and 90.1% and 95.4%; (compound 3.16 µM) 92.4% and 89.8% and 78.8%; (compound 10 µM) 61% and 73.1% and 78%. For the same molecule, where the note is “curve of compound”, the 50% inhibitory concentration (IC50) is greater than 10000 nM.
As to `CCN1C(C(=O)NC23CCC(C(=O)O)(CC2)CC3)C(c2cccc(Cl)c2F)C2(C(=O)Nc3cc(Cl)ccc32)C12CCCCC2` (configuration not stated), the viability, T/C was 96.6% [middle of 9 runs] (compound 0.0949 µM), 95.2% [middle of 9 runs] (compound 0.3 µM) and 87.6% [middle of 9 runs] (compound 3 µM). The IC50 reads like this: under setting [1], greater than 3000 nM; (curve of compound) greater than 3000 nM.
With `CCN1CCN(Cc2ccc(Nc3ncc(F)c(-c4cc(F)c5nc(C)n(C(C)C)c5c4)n3)nc2)CC1`, the viability, T/C was 91.8% and 94.4% and 104% (compound 0.00316 µM); 93.8% and 95.1% (2×) (compound 0.01 µM); 99.1% and 98.7% and 102% (compound 0.0316 µM); 101% and 97.3% and 89.7% (compound 0.1 µM); 72.4% and 84.1% and 82.4% (compound 0.316 µM); 49.5% and 82.8% and 50.7% (compound 1 µM). The IC50 (curve of compound) is greater than 1000 nM.
For the molecule `CNC(C)C(=O)NC1CN(S(=O)(=O)c2cccc(S(=O)(=O)N3CCC4CCC(C(=O)NC(c5ccccc5)c5ccccc5)N4C(=O)C(NC(=O)C(C)NC)C3)c2)CCC2CCC(C(=O)NC(c3ccccc3)c3ccccc3)N2C1=O` (configuration not stated), the viability, T/C (compound 0.0316 µM) was 72.8% [middle of 9 runs]. In addition, for the setting “curve of compound”, the IC50 was 254 nM and 416 nM.
In the case of `COc1c(OCCCN2CCOCC2)ccc2c3n(c(=NC(=O)c4cnc(N)nc4)nc12)CCN3`, the viability, T/C (compound 0.00316 µM) is 92% and 97.6% and 96.2%; the viability, T/C (compound 0.01 µM) is 90.5% and 100% and 93.7%; the viability, T/C (compound 0.0316 µM) was 73.5% and 93.8% and 80.6%; the viability, T/C (compound 0.1 µM) is 49.4% and 56.9% and 59.9%; the viability, T/C (compound 0.316 µM) was 25.9% and 37.9% and 33.4%; the viability, T/C (compound 1 µM) is 12.6% and 21.9% and 15.6%. Besides, the IC50 (curve of compound) was 149 nM and 158 nM and 103 nM.
As to `Cc1c(S(C)(=O)=O)c(-c2cc(F)cc(N3CCN(c4ccc(NS(=O)(=O)c5ccc(NC(CCN6CCC(C(=O)OCCCP(=O)(O)O)CC6)CSc6ccccc6)c(S(=O)(=O)C(F)(F)F)c5)cc4)CC3)c2)c(-c2ccc(Cl)cc2)n1C(C)C` (configuration not stated), the viability, T/C is 98% [middle of 7 runs] (compound 0.0316 µM), 93.2% [middle of 7 runs] (compound 0.316 µM) and 81% [middle of 7 runs] (compound 3.16 µM). Also, the IC50 under setting [1] is greater than 10000 nM.
Regarding `Cc1nc(N2CCC3(CC2)COC(C)C3N)c(CO)nc1Sc1ccnc(N)c1Cl` (configuration not stated), the viability, T/C (compound 0.00949 µM) is 108% and 113% and 102%; the viability, T/C (compound 0.03 µM) is 83.1% and 90.6% and 95.5%; the viability, T/C (compound 0.0949 µM) was 79.3% and 103% and 99.2%; the viability, T/C (compound 0.3 µM) is 73.6% and 89.4% and 77.2%; the viability, T/C (compound 0.949 µM) is 59.2% and 66.4% and 64.5%; the viability, T/C (compound 3 µM) is 43.2% and 58.9% and 51%. The IC50 (curve of compound) is 2000 nM and > 3000 nM.
Turning to `Cn1ncnc1[C@H]1c2n[nH]c(=O)c3cc(F)cc(c23)N[C@@H]1c1ccc(F)cc1`, the viability, T/C is 99% and 111% and 93.9% (compound 0.000316 µM); 81.6% and 81.9% and 107% (compound 0.001 µM); 80.5% and 107% and 99% (compound 0.00316 µM); 89.2% and 87.3% and 89% (compound 0.01 µM); 68.7% and 96.5% and 83% (compound 0.0316 µM); 70.7% and 81% and 56.7% (compound 0.1 µM). Further, for the setting “curve of compound”, the concentration for half-maximal inhibition (IC50) is greater than 100 nM.
For the molecule `NC(=O)C(=Cn1cnc(-c2cc(C(F)(F)F)cc(C(F)(F)F)c2)n1)c1cncnc1`, the viability, T/C was 92.5% and 89.6% and 23.9% (compound 0.000949 µM); 88.1% and 74.5% and 25.9% (compound 0.003 µM); 92.4% and 72% and 36.3% (compound 0.00949 µM); 45.8% and 39.8% and 16% (compound 0.03 µM); 6.6% and 6.29% and 7.34% (compound 0.0949 µM); 3.75% and 1.91% and 3.91% (compound 0.3 µM).
As for `NC1CCC(NC2CC2c2ccccc2)CC1` (configuration not stated), the viability, T/C runs as follows: (compound 0.000316 µM) 107% and 84.4% and 104%; (compound 0.001 µM) 97.8% and 80.7% and 96.1%; (compound 0.00316 µM) 84.8% and 99.5% and 109%; (compound 0.01 µM) 95.1% and 93.7% and 104%; (compound 0.0316 µM) 91.5% and 112% and 96.1%; (compound 0.1 µM) 97.7% and 80.4% and 90%. Besides, the IC50 (curve of compound) is greater than 100 nM.
Consider `O=C(c1cc(Cc2n[nH]c(=O)c3ccccc23)ccc1F)N1CCN(C(=O)C2CC2)CC1`, for which the viability, T/C (compound 0.0316 µM) was 106% and 111% and 91.2%; the viability, T/C (compound 0.1 µM) is 76.1% and 100% and 97%; the viability, T/C (compound 0.316 µM) was 110% and 87.8% and 93.8%; the viability, T/C (compound 1 µM) is 83% and 101% and 88.7%; the viability, T/C (compound 3.16 µM) was 82.7% and 84.3% and 47.8%; the viability, T/C (compound 10 µM) was 42.5% and 46.9% and 32.5%. For the same molecule, the IC50 (curve of compound) was 8070 nM and 9240 nM and 2970 nM.
Turning to `O=C(c1ccc(F)c(F)c1Nc1ccc(I)cc1F)N1CC(O)([C@@H]2CCCCN2)C1`, the viability, T/C is 97% and 91.5% and 98.6% (compound 0.00316 µM); 102% and 91.8% and 91% (compound 0.01 µM); 109% and 88.6% and 93.6% (compound 0.0316 µM); 94.1% and 119% and 117% (compound 0.1 µM); 65.2% and 71.6% and 81.1% (compound 0.316 µM); 19.6% and 18.1% and 25% (compound 1 µM). In addition, the IC50 (curve of compound) is 462 nM and 504 nM and 599 nM.
